According to ChEMBL document CHEMBL5291721, “A preclinical secondary pharmacology resource illuminates target-adverse drug reaction associations of marketed drugs” (Nat Commun, 2023):

Legend:
[1] = target: Acetylcholinesterase (Homo sapiens, UniProt P22303); format: functional
[2] = target: T1, Adenosine receptor A3 (Homo sapiens, UniProt P0DMS8)
T1 sequence (P0DMS8 whole entry): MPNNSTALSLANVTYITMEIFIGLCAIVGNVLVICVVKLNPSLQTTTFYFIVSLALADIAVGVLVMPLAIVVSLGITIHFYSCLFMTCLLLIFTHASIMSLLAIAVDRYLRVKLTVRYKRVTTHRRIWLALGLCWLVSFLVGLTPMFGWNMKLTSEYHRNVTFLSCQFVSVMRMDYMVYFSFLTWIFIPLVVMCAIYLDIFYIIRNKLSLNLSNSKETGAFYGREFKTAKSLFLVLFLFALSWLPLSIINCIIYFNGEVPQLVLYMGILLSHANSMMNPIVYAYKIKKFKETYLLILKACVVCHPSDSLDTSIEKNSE

[3] = target: T2, Alpha-1A adrenergic receptor (Homo sapiens, UniProt P35348); format: functional, cell-based
T2 sequence (P35348 whole entry): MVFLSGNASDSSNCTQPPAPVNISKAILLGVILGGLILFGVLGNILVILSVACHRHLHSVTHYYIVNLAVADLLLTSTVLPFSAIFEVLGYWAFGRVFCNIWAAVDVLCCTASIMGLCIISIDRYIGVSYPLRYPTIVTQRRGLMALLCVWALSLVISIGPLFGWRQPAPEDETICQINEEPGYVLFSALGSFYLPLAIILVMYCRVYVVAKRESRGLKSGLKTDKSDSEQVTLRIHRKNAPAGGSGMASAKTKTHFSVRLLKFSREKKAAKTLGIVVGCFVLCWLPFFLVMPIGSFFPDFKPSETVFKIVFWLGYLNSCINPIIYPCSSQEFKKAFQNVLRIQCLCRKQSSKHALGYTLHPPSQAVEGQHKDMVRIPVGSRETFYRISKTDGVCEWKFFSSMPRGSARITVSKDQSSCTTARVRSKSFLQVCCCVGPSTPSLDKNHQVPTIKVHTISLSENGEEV

[4] = target: T2, Alpha-1A adrenergic receptor; format: functional, cell-based; remark: listed apart in the source
[5] = target: T3, Alpha-2A adrenergic receptor (Homo sapiens, UniProt P08913)
T3 sequence (P08913 whole entry): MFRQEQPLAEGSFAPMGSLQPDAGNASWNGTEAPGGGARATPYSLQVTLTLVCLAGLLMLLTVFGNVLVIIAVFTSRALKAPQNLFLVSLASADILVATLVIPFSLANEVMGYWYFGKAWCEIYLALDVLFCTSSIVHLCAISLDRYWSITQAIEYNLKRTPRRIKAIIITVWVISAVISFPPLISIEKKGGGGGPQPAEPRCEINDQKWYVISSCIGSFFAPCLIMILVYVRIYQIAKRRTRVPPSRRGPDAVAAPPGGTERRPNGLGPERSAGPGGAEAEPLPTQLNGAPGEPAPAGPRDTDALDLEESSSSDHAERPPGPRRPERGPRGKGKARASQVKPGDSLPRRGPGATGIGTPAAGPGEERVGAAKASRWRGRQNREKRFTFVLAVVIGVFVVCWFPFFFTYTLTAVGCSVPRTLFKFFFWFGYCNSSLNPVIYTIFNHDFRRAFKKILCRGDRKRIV

[6] = target: D(1A) dopamine receptor (Homo sapiens, UniProt P21728)
Chain of D(1A) dopamine receptor (P21728 whole entry): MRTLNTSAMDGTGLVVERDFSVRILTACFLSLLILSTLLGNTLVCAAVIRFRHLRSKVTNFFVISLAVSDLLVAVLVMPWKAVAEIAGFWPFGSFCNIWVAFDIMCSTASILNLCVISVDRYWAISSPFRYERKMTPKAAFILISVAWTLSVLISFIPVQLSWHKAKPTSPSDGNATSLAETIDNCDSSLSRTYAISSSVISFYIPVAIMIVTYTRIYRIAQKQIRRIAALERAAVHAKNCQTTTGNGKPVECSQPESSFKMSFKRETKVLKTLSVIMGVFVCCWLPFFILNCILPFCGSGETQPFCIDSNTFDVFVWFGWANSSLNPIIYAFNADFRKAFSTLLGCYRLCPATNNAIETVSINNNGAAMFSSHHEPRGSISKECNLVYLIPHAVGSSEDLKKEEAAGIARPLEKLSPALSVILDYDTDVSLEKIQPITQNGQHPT

[7] = target: D(3) dopamine receptor (Homo sapiens, UniProt P35462)
Chain of D(3) dopamine receptor (P35462 whole entry): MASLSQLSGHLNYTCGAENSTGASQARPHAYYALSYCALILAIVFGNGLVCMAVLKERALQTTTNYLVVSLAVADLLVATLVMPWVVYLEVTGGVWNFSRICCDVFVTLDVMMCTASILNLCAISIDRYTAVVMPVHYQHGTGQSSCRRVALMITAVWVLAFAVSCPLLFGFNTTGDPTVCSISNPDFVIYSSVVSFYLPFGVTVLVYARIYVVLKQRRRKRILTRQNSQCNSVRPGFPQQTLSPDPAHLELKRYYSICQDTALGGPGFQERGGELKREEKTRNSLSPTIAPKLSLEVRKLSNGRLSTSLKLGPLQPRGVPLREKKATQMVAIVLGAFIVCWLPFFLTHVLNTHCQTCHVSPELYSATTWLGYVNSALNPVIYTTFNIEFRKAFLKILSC

[8] = target: T4, Estrogen receptor (Homo sapiens, UniProt P03372)
T4 sequence (P03372 whole entry): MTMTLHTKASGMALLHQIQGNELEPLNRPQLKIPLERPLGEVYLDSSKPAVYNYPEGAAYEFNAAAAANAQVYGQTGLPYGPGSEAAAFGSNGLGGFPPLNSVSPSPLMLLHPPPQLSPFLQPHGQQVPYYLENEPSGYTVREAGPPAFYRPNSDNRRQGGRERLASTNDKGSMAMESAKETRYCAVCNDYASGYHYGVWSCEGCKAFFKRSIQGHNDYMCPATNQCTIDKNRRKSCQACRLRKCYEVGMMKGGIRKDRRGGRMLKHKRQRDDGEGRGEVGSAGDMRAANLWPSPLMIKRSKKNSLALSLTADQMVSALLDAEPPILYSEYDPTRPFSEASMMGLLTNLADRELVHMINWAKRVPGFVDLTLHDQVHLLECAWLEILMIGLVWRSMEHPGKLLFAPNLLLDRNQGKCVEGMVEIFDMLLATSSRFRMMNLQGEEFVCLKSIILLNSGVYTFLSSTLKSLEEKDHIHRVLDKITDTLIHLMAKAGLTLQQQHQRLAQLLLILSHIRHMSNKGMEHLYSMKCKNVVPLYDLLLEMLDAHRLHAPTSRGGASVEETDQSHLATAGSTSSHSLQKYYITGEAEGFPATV

[9] = target: Histamine H3 receptor (Homo sapiens, UniProt Q9Y5N1)
Chain of Histamine H3 receptor (Q9Y5N1 whole entry): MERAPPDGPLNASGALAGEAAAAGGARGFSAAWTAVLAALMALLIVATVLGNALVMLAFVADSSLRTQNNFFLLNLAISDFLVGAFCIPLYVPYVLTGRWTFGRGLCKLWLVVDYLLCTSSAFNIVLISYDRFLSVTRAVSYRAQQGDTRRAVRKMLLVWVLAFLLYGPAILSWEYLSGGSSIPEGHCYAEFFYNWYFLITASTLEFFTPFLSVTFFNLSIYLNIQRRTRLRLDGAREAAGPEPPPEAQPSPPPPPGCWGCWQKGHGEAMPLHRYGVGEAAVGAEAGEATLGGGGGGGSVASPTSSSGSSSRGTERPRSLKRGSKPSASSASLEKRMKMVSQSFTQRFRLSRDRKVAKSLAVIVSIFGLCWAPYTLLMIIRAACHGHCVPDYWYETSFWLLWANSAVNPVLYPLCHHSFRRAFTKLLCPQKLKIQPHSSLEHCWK

[10] = target: Mu-type opioid receptor (Homo sapiens, UniProt P35372)
[11] = target: cGMP-inhibited 3',5'-cyclic phosphodiesterase 3A (Homo sapiens, UniProt Q14432); format: functional
Chain of cGMP-inhibited 3',5'-cyclic phosphodiesterase 3A (Q14432 whole entry): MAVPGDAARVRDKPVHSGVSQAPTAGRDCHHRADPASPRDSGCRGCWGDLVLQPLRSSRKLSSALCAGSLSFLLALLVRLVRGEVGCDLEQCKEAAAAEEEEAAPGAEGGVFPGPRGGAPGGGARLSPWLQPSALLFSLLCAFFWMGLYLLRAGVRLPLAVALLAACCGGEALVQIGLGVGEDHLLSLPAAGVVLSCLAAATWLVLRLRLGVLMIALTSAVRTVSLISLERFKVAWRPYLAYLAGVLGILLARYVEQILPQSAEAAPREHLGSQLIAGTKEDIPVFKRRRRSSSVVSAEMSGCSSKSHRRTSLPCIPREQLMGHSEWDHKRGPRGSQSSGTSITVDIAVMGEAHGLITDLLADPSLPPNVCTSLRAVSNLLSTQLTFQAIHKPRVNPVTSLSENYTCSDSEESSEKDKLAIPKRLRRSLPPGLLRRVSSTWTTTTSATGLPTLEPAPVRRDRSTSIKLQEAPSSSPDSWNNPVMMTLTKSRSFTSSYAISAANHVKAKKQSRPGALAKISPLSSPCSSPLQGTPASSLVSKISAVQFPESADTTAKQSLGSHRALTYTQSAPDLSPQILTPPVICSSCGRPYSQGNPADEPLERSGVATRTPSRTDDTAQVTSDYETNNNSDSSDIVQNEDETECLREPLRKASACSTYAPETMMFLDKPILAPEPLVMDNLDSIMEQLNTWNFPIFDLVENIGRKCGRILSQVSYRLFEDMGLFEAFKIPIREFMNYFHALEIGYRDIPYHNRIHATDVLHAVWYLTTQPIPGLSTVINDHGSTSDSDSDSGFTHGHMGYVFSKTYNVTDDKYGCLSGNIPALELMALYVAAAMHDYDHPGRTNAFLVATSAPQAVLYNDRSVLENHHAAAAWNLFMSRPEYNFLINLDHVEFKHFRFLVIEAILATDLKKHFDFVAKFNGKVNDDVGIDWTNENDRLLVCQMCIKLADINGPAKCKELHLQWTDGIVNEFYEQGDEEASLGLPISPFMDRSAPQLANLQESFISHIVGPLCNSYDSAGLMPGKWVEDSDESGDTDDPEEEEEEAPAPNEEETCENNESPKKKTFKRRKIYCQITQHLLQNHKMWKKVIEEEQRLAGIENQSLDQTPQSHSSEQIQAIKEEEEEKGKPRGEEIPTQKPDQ

[12] = target: T5, Prostaglandin G/H synthase 1 (Homo sapiens, UniProt P23219); format: functional
T5 sequence (P23219 whole entry): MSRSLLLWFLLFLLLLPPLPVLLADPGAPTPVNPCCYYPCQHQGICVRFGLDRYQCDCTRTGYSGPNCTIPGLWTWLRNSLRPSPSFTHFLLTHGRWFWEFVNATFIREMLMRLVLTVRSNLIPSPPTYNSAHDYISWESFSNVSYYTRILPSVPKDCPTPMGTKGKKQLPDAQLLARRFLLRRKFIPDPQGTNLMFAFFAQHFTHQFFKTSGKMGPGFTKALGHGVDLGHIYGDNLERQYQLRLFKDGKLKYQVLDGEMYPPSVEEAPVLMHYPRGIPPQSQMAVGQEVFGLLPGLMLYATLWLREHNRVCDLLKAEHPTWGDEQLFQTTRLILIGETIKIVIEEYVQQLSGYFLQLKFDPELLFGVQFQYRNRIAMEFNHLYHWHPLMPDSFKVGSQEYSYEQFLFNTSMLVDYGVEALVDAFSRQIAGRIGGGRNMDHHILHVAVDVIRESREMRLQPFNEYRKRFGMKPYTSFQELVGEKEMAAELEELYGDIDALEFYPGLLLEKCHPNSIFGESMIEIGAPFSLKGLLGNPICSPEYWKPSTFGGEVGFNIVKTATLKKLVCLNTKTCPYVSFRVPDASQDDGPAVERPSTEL

[13] = target: T5, Prostaglandin G/H synthase 1; format: functional; remark: listed apart in the source
[14] = target: Sodium-dependent noradrenaline transporter (Homo sapiens, UniProt P23975)
Chain of Sodium-dependent noradrenaline transporter (P23975 whole entry): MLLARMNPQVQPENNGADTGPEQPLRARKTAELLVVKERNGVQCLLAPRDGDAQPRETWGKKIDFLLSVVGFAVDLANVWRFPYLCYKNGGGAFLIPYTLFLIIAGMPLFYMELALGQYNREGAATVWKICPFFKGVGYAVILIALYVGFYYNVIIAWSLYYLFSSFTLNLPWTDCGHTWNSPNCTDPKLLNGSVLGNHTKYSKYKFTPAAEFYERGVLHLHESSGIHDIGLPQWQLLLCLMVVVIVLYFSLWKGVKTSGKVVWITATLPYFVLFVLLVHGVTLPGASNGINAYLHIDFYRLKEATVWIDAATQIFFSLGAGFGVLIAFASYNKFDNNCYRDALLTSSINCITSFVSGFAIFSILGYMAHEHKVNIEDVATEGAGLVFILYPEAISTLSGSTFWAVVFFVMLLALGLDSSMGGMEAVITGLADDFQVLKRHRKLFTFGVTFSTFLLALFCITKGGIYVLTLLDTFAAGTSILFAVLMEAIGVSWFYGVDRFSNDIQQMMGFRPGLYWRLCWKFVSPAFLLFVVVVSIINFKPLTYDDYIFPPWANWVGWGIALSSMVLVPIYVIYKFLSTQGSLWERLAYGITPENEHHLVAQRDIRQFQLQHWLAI

[15] = target: Sodium-dependent serotonin transporter (Homo sapiens, UniProt P31645)
Chain of Sodium-dependent serotonin transporter (P31645 whole entry): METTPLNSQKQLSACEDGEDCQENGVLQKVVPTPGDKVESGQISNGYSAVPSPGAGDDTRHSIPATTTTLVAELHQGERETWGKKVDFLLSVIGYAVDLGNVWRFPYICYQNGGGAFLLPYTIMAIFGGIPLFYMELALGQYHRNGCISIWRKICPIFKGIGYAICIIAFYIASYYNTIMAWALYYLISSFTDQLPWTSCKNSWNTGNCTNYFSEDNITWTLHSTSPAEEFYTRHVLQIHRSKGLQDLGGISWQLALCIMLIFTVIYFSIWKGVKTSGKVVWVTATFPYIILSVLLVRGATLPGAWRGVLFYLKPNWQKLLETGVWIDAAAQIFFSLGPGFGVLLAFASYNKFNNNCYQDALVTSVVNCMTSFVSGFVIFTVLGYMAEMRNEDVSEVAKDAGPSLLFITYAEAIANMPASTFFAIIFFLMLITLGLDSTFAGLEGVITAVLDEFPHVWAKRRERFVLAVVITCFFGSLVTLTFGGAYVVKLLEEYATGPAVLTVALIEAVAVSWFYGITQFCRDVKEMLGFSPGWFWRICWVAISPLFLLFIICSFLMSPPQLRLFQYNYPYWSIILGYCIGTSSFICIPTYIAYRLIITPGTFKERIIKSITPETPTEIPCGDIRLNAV

[16] = target: T6, Thromboxane A2 receptor (Homo sapiens, UniProt P21731); format: functional, cell-based
T6 sequence (P21731 whole entry): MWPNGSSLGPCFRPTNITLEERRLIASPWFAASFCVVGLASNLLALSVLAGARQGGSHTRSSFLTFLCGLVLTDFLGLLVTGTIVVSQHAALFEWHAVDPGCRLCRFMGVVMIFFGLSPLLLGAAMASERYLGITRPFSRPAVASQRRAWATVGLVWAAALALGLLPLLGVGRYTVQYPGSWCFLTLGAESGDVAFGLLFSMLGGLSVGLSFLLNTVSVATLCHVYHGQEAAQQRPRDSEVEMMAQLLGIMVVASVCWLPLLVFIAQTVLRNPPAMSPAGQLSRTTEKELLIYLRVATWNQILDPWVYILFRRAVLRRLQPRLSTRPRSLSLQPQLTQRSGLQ

[17] = target: T6, Thromboxane A2 receptor; format: functional, cell-based; remark: listed apart in the source
Also: assay procedure not described here.

Chain of Acetylcholinesterase (P22303 whole entry): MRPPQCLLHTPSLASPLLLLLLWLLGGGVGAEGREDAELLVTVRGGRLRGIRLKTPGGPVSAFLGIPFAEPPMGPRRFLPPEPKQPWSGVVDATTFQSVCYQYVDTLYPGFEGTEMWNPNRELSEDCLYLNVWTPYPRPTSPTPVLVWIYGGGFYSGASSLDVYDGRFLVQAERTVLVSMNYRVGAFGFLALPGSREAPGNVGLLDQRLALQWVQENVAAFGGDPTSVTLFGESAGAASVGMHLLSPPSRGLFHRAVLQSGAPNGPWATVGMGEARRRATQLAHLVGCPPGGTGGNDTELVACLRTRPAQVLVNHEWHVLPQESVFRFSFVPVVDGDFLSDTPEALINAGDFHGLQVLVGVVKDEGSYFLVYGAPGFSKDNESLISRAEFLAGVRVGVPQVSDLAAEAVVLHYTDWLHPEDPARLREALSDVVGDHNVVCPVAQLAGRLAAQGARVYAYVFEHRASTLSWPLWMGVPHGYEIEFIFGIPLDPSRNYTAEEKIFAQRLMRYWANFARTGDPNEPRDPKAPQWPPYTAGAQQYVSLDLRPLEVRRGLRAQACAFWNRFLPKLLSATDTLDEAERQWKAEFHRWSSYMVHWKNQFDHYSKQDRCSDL

| Compound | AC50 [1] | AC50 [2] | AC50 [3] | AC50 [4] | AC50 [5] | AC50 [6] | AC50 [7] | AC50 [8] | AC50 [9] | AC50 [10] | AC50 [11] | AC50 [12] | AC50 [13] | AC50 [14] | AC50 [15] | AC50 [16] | AC50 [17] |
| --- | --- | --- | --- | --- | --- | --- | --- | --- | --- | --- | --- | --- | --- | --- | --- | --- | --- |
| N[C@@H](Cc1c[nH]c2ccc(O)cc12)C(=O)O [OXITRIPTAN] | > 30 µM | 0.765 µM | > 30 µM | > 30 µM | > 30 µM | > 30 µM | > 30 µM | > 30 µM | > 30 µM | > 30 µM | > 30 µM | > 3 µM | > 30 µM | > 30 µM | 15.5 µM | > 30 µM | > 30 µM |
| C1CNCCN1 [PIPERAZINE] | > 30 µM | > 30 µM | > 30 µM | > 30 µM | > 30 µM | > 30 µM | > 30 µM | > 30 µM | > 30 µM | > 30 µM | > 30 µM | > 30 µM | > 30 µM | > 30 µM | > 30 µM | > 30 µM | > 30 µM |
| c1cc(CN2CCCNCCNCCCNCC2)ccc1CN1CCCNCCNCCCNCC1 [PLERIXAFOR] | > 30 µM | > 30 µM | > 30 µM | > 30 µM | > 30 µM | > 30 µM | > 30 µM | > 30 µM | 0.307 µM | > 30 µM | > 30 µM | > 30 µM | > 30 µM | > 30 µM | > 30 µM | > 30 µM | > 30 µM |
| O=C(NC(Cc1cc(=O)[nH]c2ccccc12)C(=O)O)c1ccc(Cl)cc1 (stereo unspecified) [REBAMIPIDE] | > 30 µM | > 30 µM | > 30 µM | > 30 µM | > 30 µM | > 30 µM | > 30 µM | > 30 µM | > 30 µM | > 30 µM | > 30 µM | > 30 µM | > 30 µM | > 30 µM | > 30 µM | > 30 µM | > 30 µM |
| CCCC(=O)O[C@H]1[C@H](C)O[C@@H](O[C@H]2[C@H](N(C)C)[C@@H](O)[C@H](O[C@H]3[C@@H](CC=O)C[C@@H](C)[C@@H](O)/C=C/C=C/C[C@@H](C)OC(=O)C[C@@H](O)[C@@H]3OC)O[C@@H]2C)C[C@@]1(C)OC(=O)CC [ROKITAMYCIN] | > 30 µM | > 30 µM | > 30 µM | > 30 µM | > 30 µM | > 30 µM | > 30 µM | > 30 µM | > 30 µM | > 30 µM | > 10 µM | 8.78 µM | > 30 µM | > 30 µM | > 30 µM | > 30 µM | > 30 µM |
| CCCCCCCCCCCCCCCCCC(=O)NCCCC[C@H](NC(=O)CC[C@@H](NC(=O)[C@H](C)NC(=O)[C@@H](C)O[C@H]1[C@H](O)[C@@H](CO)OC(O)[C@@H]1NC(C)=O)C(N)=O)C(=O)O (stereo partly specified) [ROMURTIDE] | > 30 µM | 2.2 µM | > 30 µM | 13.3 µM | > 30 µM | > 30 µM | > 30 µM | 22.2 µM | > 30 µM | > 30 µM | > 30 µM | 5.94 µM | > 30 µM | > 30 µM | > 30 µM | 15.9 µM | > 3 µM |
| CCOC(=O)[C@H](CCc1ccccc1)N[C@H]1CS[C@H](c2cccs2)CN(CC(=O)O)C1=O [TEMOCAPRIL] | > 30 µM | > 30 µM | > 30 µM | > 30 µM | > 30 µM | > 30 µM | > 30 µM | > 30 µM | > 30 µM | > 30 µM | > 30 µM | > 30 µM | > 30 µM | > 30 µM | > 30 µM | > 30 µM | > 30 µM |
| COc1cc([C@@H]2c3cc4c(cc3[C@@H](O[C@@H]3O[C@@H]5CO[C@@H](c6cccs6)O[C@H]5[C@H](O)[C@H]3O)[C@H]3COC(=O)[C@H]23)OCO4)cc(OC)c1O [TENIPOSIDE] | > 30 µM | > 30 µM | > 30 µM | > 30 µM | > 30 µM | > 30 µM | > 30 µM | > 30 µM | > 30 µM | > 30 µM | > 3 µM | > 30 µM | > 30 µM | > 30 µM | > 30 µM | > 30 µM | > 30 µM |
